Results on eleven compounds are retold here after US20230416261A1, “ETHANEDIAMINE-HETEROCYCLE DERIVATIVES AS INHIBITORS OF PROTEIN ARGININE METHYLTRANSFERASES” (Board of Regents, The University of Texas System, priority 2021, published 2023).

The target of experiment [1] is T1, PRMT1 (Homo sapiens, UniProt Q99873). Kind of experiment: PRMT1 RKO Cellular Target Engagement Assay (In-Cell Western, asymmetric di-methyl arginine). Format: cell-based. To be noted: RKO cells, 48 hr compound incubation; read-out: RKO IC50 (PRMT-1 Target Engagement). The protocol: RKO cells were routinely maintained in EMEM media (ATCC, Catalog #30-2003) supplemented with 10% fetal bovine serum (Sigma, Catalog #F2442) using a humidified incubator (37° C., 5% CO2, and ambient O2).
In preparation for the In-Cell Western assay, cells were harvested and resuspended in EMEM media supplemented with 10% fetal bovine serum. Cells were seeded onto a 384 well, black, clear bottom, Poly-D-Lysine coated tissue culture plate (Greiner, Catalog #781946) at a density of 1,000 cells/well in a volume of 40 μL. The culture plate was incubated for 24 hr at 37° C. with 5% CO2 and ambient O2. Stock solutions of the test compounds were prepared in 100% DMSO (Sigma, Catalog #D2650) and serially diluted 1:3 using 100% DMSO. Compounds were additionally diluted 1:40 in culture medium, and 10 μL/well was transferred to the tissue culture plate. Following the compound addition the microplate was incubated at 37° C. for 48 hr.
The media was removed, the plate was washed with 1× PBS (Fisher Bioreagents, Catalog #BP399-20), and cells were fixed for 10 min using 30 μL/well of 4% paraformaldehyde (Electron Microscopy Sciences, Catalog #15710). The paraformaldehyde was removed, the plate was again washed with 1× PBS, and cells were permeabilized for 15 min using 30 μL/well of 1× PBS containing 0.5% Triton-X 100 (Sigma, Catalog #1001748095). The permeabilization buffer was removed, the plate was washed with 1× PBST (Boston BioProducts, Catalog #IBB-171X), and 50 μL/well of blocking buffer (LI-COR, Catalog #927-40000) was added followed by a 1 hour incubation at room temperature. The blocking buffer was removed, and 20 μL/well of anti-asymmetric di-methyl arginine antibody (Cell Signaling, Catalog #13522S) diluted 1:1000 in LI-COR blocking buffer was added to the plate and incubated overnight, in the dark at 4° C.
The primary antibody was then removed, and the plate was washed three times with 1× PBST. 20 μL/well of CellTag (LI-COR, Catalog #926-41090) and IRDye 800CW goat anti-rabbit IgG antibody (LI-COR, Catalog #926-32211), each diluted 1:500 in LI-COR blocking buffer supplemented with 0.1% Tween-20 (Thermo Scientific, Catalog #85114), were added to the plate. The plate was then incubated in the dark, at room temperature for 1 hour followed by three washes with 1× PBST and one wash with H2O. The IRDye secondary antibody signal (800 channel) and the CellTag signal (700 channel) were measured using a Licor Odyssey Imager, and the 800 channel signal was then normalized to the 700 channel signal. IC50 values were calculated using a four-parameter logistic curve fit using Genedata Screener software.

In the next experiment the test system is DOHH2 cells. Description: DOHH2 Long Term Phenotypic Assay (7 days, Cell Titer-Glo viability). The format is cell-based. To be noted: Cell Titer-Glo 2.0. On the procedure:
DOHH2 cells were kindly provided by Michael Green (MDACC). The cells were routinely maintained in RPMI-1640 Medium (ATCC, Catalog #30-2001) supplemented with 10% fetal bovine serum (Sigma, Catalog #F2442), 100 units/mL penicillin and 100 μg/mL streptomycin (Gibco, Catalog #15140-122) in a humidified incubator (37° C., 5% CO2). Cells were seeded onto a white, CulturPlate-384 (Perkin Elmer, catalog #6007680) at a density of 250 cells per well in a volume of 50 μL. Stock solutions of the test compounds were prepared in 100% DMSO (Sigma, Catalog #D2650) and serially diluted 1:3 using 100% DMSO. Compounds were additionally diluted 1:33 in culture medium, and 10 μL/well was transferred to the tissue culture plate. Following the compound addition, the plate was incubated at 37° C. and 5% CO2 for 7 days. Cells were then mixed and a 30 μL volume was removed. Viability was assessed by a 30 μL addition of Cell Titer-Glo 2.0 (Promega, catalog #G9243). The plate was then shaken on an orbital shaker at 300 RPM for 10 minutes at room temperature, in the dark. Luminescence was measured using a PerkinElmer Envision™ plate reader. IC50 values were calculated using a four-parameter logistic curve fit using Genedata Screener software.
In general terms: In ATP-based viability assays light output follows the ATP content of the culture.

For experiment [2], the target named is T1, PRMT1. Kind of experiment: PRMT1 Enzymatic Assay (LANCE TR-FRET, methylation of histone H4 at Arg3). Format: biochemical. The arrangement: purchased SignalChem P365-380G. The settings on record: PRMT1 1.5 nM, SAM 1 μM, biotinylated histone H4 (1-21) 25 nM; read-out: PRMT-1 IC50. On the procedure:
In order to measure PRMT1 enzymatic activity the LANCE TR-FRET assay from PerkinElmer was used to follow the methylation of histone H4 at Arg3 using S-adenosyl-L-methionine (SAM) as the methyl group donor.
This enzymatic assay was performed in a 384 well, white, low volume plate (PerkinElmer, Catalog 6008289) with assay buffer consisting of 50 mM Hepes (pH 8) (Teknova, Catalog #H1090), 1 mM TCEP (Sigma, Catalog #C4706), and 0.003% Tween-20 (Thermo, Catalog #85114). Stock solutions of the test compounds were prepared in 100% DMSO (Sigma, Catalog #D2650) and serially diluted 1:3 using 100% DMSO. Compounds were additionally diluted 1:40 in assay buffer, and 2 uL/well were transferred to the assay plate. 4 uL/well (final concentration 1.5 nM) of PRMT1 protein (SignalChem, Catalog #P365-380G) diluted in assay buffer was added to the assay plate followed by a 15 min preincubation at room temperature. 4 uL/well of SAM (Sigma, Catalog #A7007) and biotinylated histone H4 (1-21) (AnaSpec, Catalog #62555) (final concentrations 1 μM and 25 nM, respectively) diluted in assay buffer were then added to the assay plate followed by a 1 hour reaction time. Final concentrations of PRMT1, SAM, and histone H4 (1-21) refer to a […].
Detection of methylated histone H4 (H4R^3me) was achieved by combining LANCE Ultra Europium-anti-H4R^3me antibody (PerkinElmer, Catalog #TRF04-14), LANCE Ultra ULight-anti-streptavidin antibody (PerkinElmer, Catalog #TRF0102), and sinefungin (Sigma, Catalog #S8559) (final concentrations 2 nM, 50 nM, and 100 μM respectively) in 1× LANCE detection buffer (PerkinElmer, Catalog #CR97-100) and adding L/well of the detection solution to the assay plate. Detection reagents were allowed to react for 1 hour at room temperature. Final concentrations in the detection solution refer to a L volume. The europium fluorescence signal and the ULight TR-FRET signal were measured using a BioTek Synergy Neo plate reader: excitation at 330 nm, emission at 620 nm and 665 nm respectively, and the ratio of the two signals (665 nm/620 nm) was used for curve fitting. IC50 values were calculated using a four-parameter logistic curve fit using Genedata Screener software.
Background: Time-resolved FRET reads energy transfer from a long-lived donor to a nearby acceptor.

T1 sequence (Q99873 whole entry): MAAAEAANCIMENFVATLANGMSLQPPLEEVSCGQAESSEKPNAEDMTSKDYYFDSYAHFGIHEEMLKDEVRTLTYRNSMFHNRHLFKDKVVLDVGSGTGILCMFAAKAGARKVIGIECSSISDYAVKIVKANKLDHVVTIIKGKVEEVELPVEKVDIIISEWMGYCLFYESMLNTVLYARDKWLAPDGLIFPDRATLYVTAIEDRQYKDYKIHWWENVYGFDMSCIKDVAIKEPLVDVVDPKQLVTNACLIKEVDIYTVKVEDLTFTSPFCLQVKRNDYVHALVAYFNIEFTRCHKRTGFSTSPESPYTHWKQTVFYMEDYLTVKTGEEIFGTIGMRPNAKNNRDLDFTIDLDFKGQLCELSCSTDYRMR

For orientation: IC50 means the midpoint of a concentration-inhibition curve. Take `CCC1(C(=O)N2CCn3nc(CN(C)CCNC)c(C4CCC(COC)(COC)CC4)c3C2)CCC1` [Example 67, (3-(4,4-bis(methoxymethyl)-cyclohexyl)-2-((methyl(2-(methylamino)ethyl)amino)-methyl)-6,7-dihydropyrazolo-[1,5-a]pyrazin-5(4H)-yl)(1-ethylcyclobutyl)methanone]: the IC50 on PRMT1 [1] amounted to 273 nM; with DOHH2 cells (Homo sapiens, DOHH-2, 168 h) it was 156 nM; at PRMT1 [2], 75 nM.
Take `CNCCN(C)Cc1nn2c(c1C1CCC(COC)(COC)CC1)CN(C(=O)C(C)(C)OC)CC2` [Example 69, 1-(3-(4,4-bis(methoxy-methyl)cyclohexyl)-2-((methyl(2-(methylamino)-ethyl)amino)methyl)-6,7-dihydropyrazolo[1,5-a]-pyrazin-5(4H)-yl)-2-methoxy-2-methylpropan-1-one]: the half-maximal inhibitory concentration (IC50) was 430 nM on PRMT1 [1]; 474 nM in the experiment on DOHH2 cells (Homo sapiens, DOHH-2, 168 h); 320 nM at PRMT1 [2].
For `COCC1(COC)CCC(c2c(CN(C)CCN)nn3c2CN(C(=O)C(C)(C)C(F)(F)F)CC3)CC1` [Example 70, 1-(2-(((2-aminoethyl)-(methyl)amino)methyl)-3-(4,4-bis(methoxymethyl)-cyclohexyl)-6,7-dihydro-pyrazolo[1,5-a]pyrazin-5(4H)-yl)-3,3,3-trifluoro-2,2-dimethylpropan-1-one] the same measures were 260 nM, 195 nM and 44 nM.
On the same counts, the results for `CNCCN(C)Cc1nn2c(c1C1CCC(COC)(COC)CC1)CN(C(=O)C(C)(C)O)CC2` [Example 71, 1-(3-(4,4-bis(methoxy-methyl)cyclohexyl)-2-((methyl(2-(methylamino)-ethyl)amino)methyl)-6,7-dihydropyrazolo[1,5-a]-pyrazin-5(4H)-yl)-2-hydroxy-2-methylpropan-1-one] are 3480 nM, 962 nM and 266 nM.
For `CNCCN(C)Cc1nn2c(c1C1CCC(COC)(COC)CC1)CN(C(=O)C(C)COC)CC2` (stereo not drawn) [Example 72, 1-(3-(4,4-bis(methoxy-methyl)cyclohexyl)-2-((methyl(2-(methylamino)-ethyl)amino)methyl)-6,7-dihydropyrazolo[1,5-a]-pyrazin-5(4H)-yl)-3-methoxy-2-methylpropan-1-one] the same measures were 315 nM, 310 nM and 112 nM.
`CNCCN(C)Cc1nn2c(c1C1CCC(COC)(COC)CC1)CN(C(=O)C1CCOC1(C)C)CC2` (stereo not drawn) [Example 73, (3-(4,4-bis(methoxymethyl)-cyclohexyl)-2-((methyl(2-(methylamino)ethyl)amino)-methyl)-6,7-dihydropyrazolo-[1,5-a]pyrazin-5(4H)-yl)(2,2-dimethyltetrahydrofuran-3-yl)methanone]: the IC50 on PRMT1 [1] was determined as 470 nM; in the experiment with DOHH2 cells (Homo sapiens, DOHH-2, 168 h), 575 nM; at PRMT1 [2], 118 nM.
`CNCCN(C)Cc1nn2c(c1C1CCC(COC)(COC)CC1)CN(C(=O)C1CC(C)(O)C1)CC2` (stereo not drawn) [Example 75, (3-(4,4-bis(methoxymethyl)-cyclohexyl)-2-((methyl(2-(methylamino)ethyl)amino)-methyl)-6,7-dihydropyrazolo-[1,5-a]pyrazin-5(4H)-yl)(3-hydroxy-3-methylcyclobutyl)methanone]: the IC50 at PRMT1 [1] came to 5650 nM; in the experiment on DOHH2 cells (Homo sapiens, DOHH-2, 168 h), 1440 nM; at PRMT1 [2] it was 70 nM.
Consider `CNCCN(C)Cc1nn2c(c1C1CCC(COC)(COC)CC1)CN(C(=O)C1(C)CCOC1)CC2` (stereo not drawn) [Example 76, (3-(4,4-bis(methoxymethyl)-cyclohexyl)-2-((methyl(2-(methylamino)ethyl)amino)-methyl)-6,7-dihydropyrazolo-[1,5-a]pyrazin-5(4H)-yl)(3-methyltetrahydrofuran-3-yl)-methanone], for which the IC50 on PRMT1 [1] was 363 nM; in the experiment with DOHH2 cells (Homo sapiens, DOHH-2, 168 h), 94 nM; at PRMT1 [2] it was 86 nM.
Turning to `CNCCN(C)Cc1nn2c(c1C1CCC(COC)(COC)CC1)CN(C(=O)C1CC(C)(C)C1)CC2` [Example 77, (3-(4,4-bis(methoxymethyl)-cyclohexyl)-2-((methyl(2-(methylamino)ethyl)amino)-methyl)-6,7-dihydropyrazolo-[1,5-a]pyrazin-5(4H)-yl)(3,3-dimethylcyclobutyl)-methanone], the values for the IC50 at PRMT1 [1], in the experiment with DOHH2 cells and on PRMT1 [2] were 254 nM, 202 nM and 84 nM, respectively.
`CNCCN(C)Cc1nn2c(c1C1CCC(COC)(COC)CC1)CN(C(=O)C(C)(C)C1CCC1)CC2` [Example 78, 1-(3-(4,4-bis(methoxy-methyl)cyclohexyl)-2-((methyl(2-(methylamino)-ethyl)amino)methyl)-6,7-dihydropyrazolo[1,5-a]-pyrazin-5(4H)-yl)-2-cyclobutyl-2-methylpropan-1-one]: the IC50 at PRMT1 [1] turned out to be 192 nM; with DOHH2 cells (Homo sapiens, DOHH-2, 168 h) it was 154 nM; on PRMT1 [2] it was 68 nM.
As to `CNCCN(C)Cc1nn2c(c1C1CCC(COC)(COC)CC1)CN(C(=O)C1CCC(C)(C)O1)CC2` (stereo not drawn) [Example 79, (3-(4,4-bis(methoxymethyl)-cyclohexyl)-2-((methyl(2-(methylamino)ethyl)amino)-methyl)-6,7-dihydropyrazolo-[1,5-a]pyrazin-5(4H)-yl)(5,5-dimethyltetrahydrofuran-2-yl)methanone], the IC50 is 688 nM on PRMT1 [1]; 303 nM with DOHH2 cells (Homo sapiens, DOHH-2, 168 h); 217 nM on PRMT1 [2].
